Ends that are not written are not given here.
Legend:
[1] = system: cfos expression in INS1 cells; experiment: cfos expression after 1 h peptide treatment, INS1 cells (qRT-PCR); assay type: cell-based, rat; conditions: GLP-1 30 μM
Excerpt: A feature of many known biologically active peptide hormones is the presence of an amidated C-terminus, which can be important for peptide bioactivity, as for gastrin-releasing peptide neuromedin-B, or for increased peptide stability, as for GLP-1. Therefore, the peptide library was constructed with an amide (NH2) group at the C-terminus as the only modification for comparative studies between peptides (FIG. 2a). In total, we generated a library of 100 peptides for functional biological screening. The peptide solubility was deduced according to its overall charge and reconstituted accordingly to optimal solubility. For all peptides, quality control by mass spectrometry was performed which validated the purity of the synthesized peptides for the primary screen according to their theoretical molecular weight (FIG. 8). Next, we functionally explored the potency of 100 of the peptides in activating cfos expression, a marker of cellular activity, after 1 hour of peptide treatment across two cell lines, Neuroscreen-1, NS-1 (rat neuronal origin) and INS1 cells (rat pancreatic origin) (FIG. 2b). […]
RNA expression analysis. […] Relative mRNA expression was determined by normalization with Ribosomalprotein S18 (Rsp18) levels using the ΔΔCt method. […]

[2] = fasting blood glucose in lean C57BL/6 mice after I.P. injection (no food); assay type: in vivo; conditions: fasted, peptides 5 mg/kg or GLP-1 2 mg/kg I.P.
Method: (§1) We next performed in vivo studies to determine whether any of these peptides affected food intake or blood glucose levels—two biological consequences of cfos activation. For acute food intake studies, lean, 8-week-old C57BL/6 mice (N=3/group) were fasted for 16 hours prior to administration of vehicle (saline), GLP-1 at 2 mg/kg, or FGF3_4, EDIL3_4, BRNP2_5, SCG1_9, FSTL4_3, and FGF5_5 peptides at 5 mg/kg. The food intake was then monitored over 6 hours.
(§2) For acute experiments, after overnight fasting for 16 hours, 8-week-old C57BL/6 mice were weighed and I.P. injected with either saline, GLP-1 at 2 mg/kg or peptides at 5 mg/kg (N=3 mice per group). Fasted blood glucose and food intake was then monitored for 6 hours.

[3] = metabolic cages (Columbus comprehensive lab animal monitoring system) after single injection; assay type: in vivo, mice
Method: To study the metabolic effects in more detail, we next used metabolic cages performed with a Columbus comprehensive lab animal monitoring system. C57BL6/J mice were acclimated to the cages and randomized into two groups, followed by an I.P. injection with either vehicle (saline) or 5 mg/kg BRP (N=4/group).
Food intake, energy expenditure and body composition measurements. Measurements of accumulated food intake and VO2 were performed using a Comprehensive Lab Animal Monitoring System at room temperature (20-22° C.) (Oxymax, Columbus Instruments) as previously described. Singly housed mice were acclimated in metabolic cages for at least 24 h before the start of experiment to minimize stress.

[4] = system: cfos expression in NS-1 cells; experiment: cfos expression after 1 h peptide treatment, NS-1 cells (qRT-PCR); assay type: cell-based, rat; conditions: for cfos activation, alanine substitutions in the BRP sequence: 100 μg/kg, fully active = >15-fold over vehicle
Excerpt: A feature of many known biologically active peptide hormones is the presence of an amidated C-terminus, which can be important for peptide bioactivity, as for gastrin-releasing peptide neuromedin-B, or for increased peptide stability, as for GLP-1. Therefore, the peptide library was constructed with an amide (NH2) group at the C-terminus as the only modification for comparative studies between peptides (FIG. 2a). In total, we generated a library of 100 peptides for functional biological screening. The peptide solubility was deduced according to its overall charge and reconstituted accordingly to optimal solubility. For all peptides, quality control by mass spectrometry was performed which validated the purity of the synthesized peptides for the primary screen according to their theoretical molecular weight (FIG. 8). Next, we functionally explored the potency of 100 of the peptides in activating cfos expression, a marker of cellular activity, after 1 hour of peptide treatment across two cell lines, Neuroscreen-1, NS-1 (rat neuronal origin) and INS1 cells (rat pancreatic origin) (FIG. 2b). Glucagon-like peptide 1 (GLP-1^7-37), a 30-mer peptide ligand for the glucagon receptor family of G protein-coupled receptors in pancreatic 3-cells, was used as a positive control at 30 μM in INS1 cells. NGF (Nerve Growth Factor) was used as a positive control at 2 nM in NS-1 cells. Expectedly, we find that GLP-1^7-37 induces a ˜4-fold elevation of cfos expression in INS1 cells and NGF induces a ˜10-fold induction of cfos expression in NS-1 cells (FIG. 2b). Across the 100 tested peptides, 6 peptides, FGF34, EDIL3_4, BRNP2_5, SCG1_9, FSTL4_3, and FGF5_5 induced more than a >5-fold cfos expression across both cell lines compared with vehicle.
Cell culture. NS-1 rat neuronal cell line was cultured with RPMI 1640 medium (Gibco) supplemented with 10% FBS and 1% L-glutamine. INS-1 832/13 rat insulinoma cell line (#SCC207) was cultured with RPMI 1640 medium (Gibco) supplemented with 10% FBS, 1% L-glutamine, 10 mM HEPES, 1 mM NaPyruvate and 50 μM β-mercaptoethanol. For peptide activity assay, 3×10^5 NS-1 and INS1 cells were plated in 12 well-plates. The next day, cells were washed twice with warm PBS and starved in serum-free RPMI overnight. Indicated concentrations of NGF (2 nM) or GLP-1 (30 μM) or peptides (100 μg/ml) were added and incubated for 1 hr at 37° C. Cells were washed with PBS and RNA was isolated for cfos expression analysis.
RNA expression analysis. Total RNA was isolated using TRIzol (Thermo Fischer Scientific) and Rneasy mini kits (QIAGEN). RNA was reverse transcribed using the ABI high-capacity cDNA synthesis kit. For qRT-PCR analysis, cDNA, primers and SYBR-green fluorescent dye (ABI) was used. Relative mRNA expression was determined by normalization with Ribosomalprotein S18 (Rsp18) levels using the ΔΔCt method. The primer sequences used are […] and […] for Rsp18 and […] and […] for cfos.

[5] = acute food intake in fasted lean C57BL/6 mice after I.P. injection; assay type: in vivo; conditions: 5 mg/kg I.P., up to 6 hours
Method: as §1
Mouse studies. Animal experiments were performed per procedures approved by the Institutional Animal Care and Use Committee of the Stanford Animal Care and Use Committee (APLAC) protocol number #32982. C57BL/6J male mice were purchased from the Jackson Laboratory (#000664) and were used after 1 week of acclimatization after import into the facility. Unless otherwise stated, all mice were in good health and housed in a temperature-controlled (20-22° C.) room on a 12-hour light/dark cycle with ad lib access to food and water.
as §2

[6] = open-field assay 30 min after single injection; assay type: in vivo, mice; conditions: 5 mg/kg I.P., 30 min post-injection
Method: Open field assay. 8-week-old C57BL/6 mice were transferred to the open-field facility and housed for 7 days for habituation before the test. Mice were weighed and then I.P. injected with either saline or BRP peptide at 5 mg/kg (N=15 mice per group, […] solution diluted in saline, total injection volume 100 ul per mouse). 30 min post-injection, the open-field test was performed in an Open Field Activity Arena (Med Associates Inc., St. Albans, VT. Model ENV-515) mounted with three planes of infrared detectors and within a specially designed sound-attenuating chamber (Med Associates Inc., St. Albans, VT. MED-017M-027). The arena was 43 cm (L)×43 cm (W)×30 cm (H), and the sound-attenuating chamber was 74 cm (L)×60 cm (W)×60 cm (H). Each mouse was placed in the corner of the testing arena and allowed to explore the arena for 10 minutes while being tracked by an automated tracking system. Data was analyzed using software Activity Monitor Version 7.8. Parameters analyzed include distance moved and time spent in the periphery and center of the arena. The periphery was defined as the zone 5 cm away from the arena wall.

**Q.** Which “elevation of cfos expression (positive control)” value [1] does the source give for “GLP-1: 30-mer peptide ligand for the glucagon receptor family of GPCRs, positive control” here?
**A.** Its value is about 4 fold.

**Q.** And the blood glucose [2]?
**A.** Its blood glucose is “lowered blood glucose”.

**Q.** What about the energy expenditure ([3]; single injection GLP-1 2 mg/kg) of the same substance?
**A.** The energy expenditure was “without affecting”.

**Q.** What about the “food intake (metabolic cages)” value ([3]; single injection GLP-1 2 mg/kg) of the same substance?
**A.** Its value is “acutely suppresses”.

**Q.** What about the locomotor activity ([3]; single injection GLP-1 2 mg/kg) of the same substance?
**A.** The locomotor activity was “without affecting”.

**Q.** What about the meal size ([3]; single injection GLP-1 2 mg/kg) of the same substance?
**A.** The meal size was “acutely suppresses”.

**Q.** Which “induction of cfos expression (positive control)” value ([4]; NGF 2 nM) does the source give for “NGF: Nerve Growth Factor, positive control in NS-1 cells [reference compound]” here?
**A.** Its value is about 10 fold.

**Q.** Which results are given for “THAILRRLFNLC [Ala substitution on residue 3]”?
**A.** cfos activation, alanine substitutions in the BRP sequence [4]: important to retain full activity; food intake, alanine substitutions compared with BRP [5]: reduced efficacy in lowering food intake

**Q.** For “THRALRRLFNLC [Ala substitution on residue 4]”, which “food intake, alanine substitutions compared with BRP” value (“food intake … compared with BRP” below) [5] is on record?
**A.** The value was “reduced efficacy in lowering food intake”.

**Q.** For “THRIARRLFNLC [Ala substitution on residue 5]”, which “food intake … compared with BRP” value [5] is on record?
**A.** The value was “reduced efficacy in lowering food intake”.

**Q.** For “THRILARLFNLC [Ala substitution on residue 6]”, which “food intake … compared with BRP” value [5] is on record?
**A.** Its value is “reduced efficacy in lowering food intake”.

**Q.** For “THRILRALFNLC [Ala substitution on residue 7]”, which “food intake … compared with BRP” value [5] is on record?
**A.** The value was “improves the appetite-suppressing effect of BRP”.

**Q.** With “THRILRRAFNLC [Ala substitution on residue 8]” as the substance, how does the “cfos activation, alanine substitutions in the BRP sequence” value (shortened to “cfos activation, alanine substitutions”) [4] read?
**A.** Its value is “important to retain full activity”.

**Q.** What about the “food intake … compared with BRP” value [5] of the same substance?
**A.** Its value is “reduced efficacy in lowering food intake”.

**Q.** Which “cfos activation, alanine substitutions” value [4] does the source give for “THRILRRLFALC [Ala substitution on residue 10]” here?
**A.** The value was “important to retain full activity”.

**Q.** For “THRILRRLFNLA [Ala substitution on residue 12]”, which “cfos activation, alanine substitutions” value [4] is on record?
**A.** Its value is “important to retain full activity”.

**Q.** What about the “food intake … compared with BRP” value [5] of the same substance?
**A.** Its value is “reduced efficacy in lowering food intake”.

**Q.** With “THRILRRLFNLC (listed as Homo sapiens) [non-amidated BRP]” as the substance, how does the “cfos activity in words” value ([4]; 100 μg/ml) read?
**A.** The value was “no activity”.

**Q.** What does the source list for THRILRRLFNLC-NH2 [BRP, THRILRRLFNLC]?
**A.** ambulatory activity ([3]; single I.P. injection 5 mg/kg): does not alter; anxiety-like behavior (open field) [6]: does not affect anxiety-like behavior

Reference: patent US20260035409A1, “BRINP2-DERIVED PEPTIDE COMPOSITIONS FOR TREATING OBESITY AND WEIGHT MANAGEMENT” (The Board of Trustees of the Leland Stanford Junior …, priority 2022, published 2026)
